{"source": "paper PMC7862291", "about": "“Full-length in meso structure and mechanism of rat kynurenine 3-monooxygenase inhibition” (Communications Biology, 2021)", "key": {"[1]": {"target": "T1, hKMO (Homo sapiens, UniProt O15229)", "T1 construct": "purchased Origene", "T1 sequence (O15229 whole entry)": "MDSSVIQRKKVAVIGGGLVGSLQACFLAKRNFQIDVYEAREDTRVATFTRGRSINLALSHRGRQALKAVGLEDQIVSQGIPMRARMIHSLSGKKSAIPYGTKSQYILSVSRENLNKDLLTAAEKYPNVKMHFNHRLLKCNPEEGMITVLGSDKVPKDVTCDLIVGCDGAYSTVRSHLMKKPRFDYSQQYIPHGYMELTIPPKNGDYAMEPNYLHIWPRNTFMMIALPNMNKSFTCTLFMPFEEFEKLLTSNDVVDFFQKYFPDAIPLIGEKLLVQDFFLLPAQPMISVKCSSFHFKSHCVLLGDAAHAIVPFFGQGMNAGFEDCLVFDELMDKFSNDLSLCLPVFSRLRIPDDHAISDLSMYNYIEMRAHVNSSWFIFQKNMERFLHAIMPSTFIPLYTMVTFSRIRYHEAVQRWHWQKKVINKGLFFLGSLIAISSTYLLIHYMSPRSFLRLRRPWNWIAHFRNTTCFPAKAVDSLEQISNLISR", "test": "Surface plasmon resonance", "type": "binding", "details": "SPR, immobilised hKMO, single-cycle kinetics", "experimental": "Surface plasmon resonance experiments were performed using a Biacore 8K+ (GE Healthcare) instrument. A 20-μg/mL concentration of hKMO (Origene) was immobilised on a Series S Sensor Chip CM5 (GE Healthcare) by NHS/EDC amine coupling. The Rmax was 13,500 resonance units (RU) upon binding.\nFive-fold serial dilutions of 50 nM compound 3 finalised in 2% DMSO were made, and run in a buffer containing HBS-P+ (GE Healthcare), 1 mM DTT, and 2% DMSO using single-cycle kinetics.\nSurface plasmon resonance data were analysed using Biacore Insight Evaluation software. All fits used a simple 1:1 Langmuir binding model showing reasonable fit and low fit χ^2 values."}, "[2]": {"test": "Pharmacokinetic (brain penetration) study in rats", "type": "in vivo", "details": "Sprague-Dawley Crl:CD(SD), rat, male SD rats, 10 mg/kg ip, 1 h after a single administration", "experimental": "Brain penetration studies were conducted in non-fasted male SD rats [Sprague-Dawley rats Crl:CD(SD), 8 weeks of age]. Compound 1 was intraperitoneally (ip) administered at 10 mg/kg in a solution of saline containing 10% dimethylformamide, 10% propylene glycol, and 4% 1 normality (N) sodium hydrate. […] Blood and brain were collected at 1 h after a single administration. The test compound in plasma samples or brain samples was extracted by deproteination with acetonitrile, and then analysed using LC-MS/MS."}}, "note": "Read-outs that look alike come from different tables or passages of the source."}
{"compound": "Cc1cnn(-c2ccc(OCc3ccccc3)c(C(=O)O)c2)c1-c1ccc(Cl)c(F)c1", "note": "[Compound 3]", "values": [{"measurement": "Kd", "setting": "[1]", "value": 39, "unit": "pM"}, {"measurement": "koff", "setting": "[1]", "value": "2.1e-05", "unit": "s⁻¹"}, {"measurement": "kon", "setting": "[1]", "value": 540000, "unit": "M⁻¹ s⁻¹"}]}
{"compound": "Cc1cnn(-c2cccc(C(=O)O)c2)c1-c1ccccc1", "note": "[Compound 1]", "values": [{"measurement": "Kp at 1 h", "setting": "[2]; brain/plasma", "value": 0.029}, {"measurement": "concentration at 1 h", "setting": "[2]; brain, read-out: Exposure in brain", "value": 25.4, "unit": "ng/g"}, {"measurement": "concentration at 1 h", "setting": "[2]; plasma, read-out: Exposure in plasma", "value": 869, "unit": "ng/mL"}]}
